From PubChem BioAssay (NCI)
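Dose response: 5 concentrations. Exposure: 48 h. Format: 96-well plates. Endpoint: linear interpolation; highest concentration if not reached. GI50 marks 50% less growth. Definition used: TGI = concentration required for complete inhibition of growth.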

What was measured:
Assay in all cases: NCI tumour cell line growth inhibition, 48 h; in the data active = GI50 below about 0.43 µM; inactive = the rest
[1] = test system: 786-0 renal
[2] = test system: A498 renal
[3] = test system: A549 NSCLC
[4] = test system: ACHN renal
[5] = test system: BT-549 breast
[6] = test system: CAKI-1 renal
[7] = test system: DU-145 prostate
[8] = test system: EKVX NSCLC
[9] = test system: HCT-15 colon
[10] = test system: HL-60(TB) leukemia
[11] = test system: HOP-62 NSCLC
[12] = test system: HS 578T breast
[13] = test system: IGROV1 ovarian
[14] = test system: K-562 leukemia
[15] = test system: KM12 colon
[16] = test system: LOX IMVI melanoma
[17] = test system: MCF7 breast
[18] = test system: MDA-MB-435
[19] = test system: MOLT-4 leukemia
[20] = test system: NCI-H226 lung
[21] = test system: NCI-H460 lung
[22] = test system: NCI/ADR-RES ovarian
[23] = test system: OVCAR-3 ovarian
[24] = test system: OVCAR-4 ovarian
[25] = test system: OVCAR-5 ovarian
[26] = test system: OVCAR-8 ovarian
[27] = test system: PC-3 prostate
[28] = test system: RPMI-8226 leukemia
[29] = test system: RXF 393 renal
[30] = test system: SF-268 CNS
[31] = test system: SF-295 CNS
[32] = test system: SF-539 CNS
[33] = test system: SK-MEL-2 melanoma
[34] = test system: SK-MEL-28 melanoma
[35] = test system: SN12C renal
[36] = test system: SNB-19 CNS
[37] = test system: SNB-75 CNS
[38] = test system: SR leukemia
[39] = test system: SW-620 colon
[40] = test system: T-47D breast
[41] = test system: TK-10 renal
[42] = test system: U251 CNS
[43] = test system: UACC-257 melanoma
[44] = test system: UACC-62 melanoma
[45] = test system: UO-31 renal

CN1CCN(Cc2ccc(NC(=O)c3[nH]ncc3Nc3ncnc4sccc34)cc2)CC1
2540 nM: TGI [23]
19600 nM: TGI [41]
active: GI50 [1] 351 nM | GI50 [2] 17.2 nM | GI50 [3] 263 nM | GI50 [4] 223 nM | GI50 [7] 350 nM | GI50 [8] 425 nM | GI50 [9] 254 nM | GI50 [10] 334 nM | GI50 [12] 60.4 nM | GI50 [13] 396 nM | GI50 [14] 235 nM | GI50 [15] 297 nM | GI50 [16] 213 nM | GI50 [17] 126 nM | GI50 [18] 394 nM | GI50 [19] 207 nM | GI50 [20] 169 nM | GI50 [21] 284 nM | GI50 [23] 306 nM | GI50 [24] 326 nM | GI50 [26] 413 nM | GI50 [27] 394 nM | GI50 [28] 360 nM | GI50 [29] 171 nM | GI50 [31] 325 nM | GI50 [32] 127 nM | GI50 [33] 368 nM | GI50 [35] 361 nM | GI50 [36] 335 nM | GI50 [37] 23 nM | GI50 [38] 219 nM | GI50 [39] 315 nM | GI50 [42] 242 nM | GI50 [45] 357 nM
3540 nM: TGI [45]
2300 nM: TGI [37]
5560 nM: TGI [5]
791 nM: TGI [4]
2930 nM: TGI [12]
3730 nM: TGI [30]
1560 nM: TGI [32]
853 nM: TGI [19]
1070 nM: TGI [10] | TGI [16]
3530 nM: TGI [8]
inactive: GI50 [5] 1230 nM | GI50 [6] 563 nM | GI50 [11] 437 nM | GI50 [22] 1070 nM | GI50 [25] 508 nM | GI50 [30] 446 nM | GI50 [34] 857 nM | GI50 [40] 699 nM | GI50 [41] 2160 nM | GI50 [43] 2120 nM | GI50 [44] 915 nM
1380 nM: TGI [28]
3920 nM: TGI [24]
2260 nM: TGI [33]
> 100000 nM: TGI [1] | TGI [3] | TGI [6] | TGI [7] | TGI [9] | TGI [11] | TGI [13] | TGI [14] | TGI [15] | TGI [17] | TGI [18] | TGI [20] | TGI [21] | TGI [22] | TGI [25] | TGI [26] | TGI [27] | TGI [31] | TGI [34] | TGI [35] | TGI [36] | TGI [39] | TGI [40] | TGI [42] | TGI [43] | TGI [44]
730 nM: TGI [38]
535 nM: TGI [29]
1120 nM: TGI [2]
